The nature of the series: Hair penetration by TOF-SIMS imaging of cross sections of treated hair fibers. It counts as physicochemical, human. The following applies: bleached dark brown European hair; agent massaged in, 24 hours at approximately 32° C., rinsed 1 minute, air-dried; positive-ion TOF-SIMS images. As for the experimental part:
What is meant by “penetrate” is that the hair conditioning agent is deposited into a region of the hair following application of the conditioning agent to the hair for twenty-four hours. Such analysis of hair penetration is set forth below in Example 8.
Various hair conditioning agents were tested for their ability to penetrate into human hair. Secondary ion mass spectrometry (SIMS) in combination with a time of flight (TOF) mass spectrometer was used to determine hair penetration. Time-Of-Flight Secondary Ion Mass Spectrometry (TOF-SIMS) makes use of the secondary ion mass spectra (of atomic species or low molecular weight fragments), which are formed when the sample surface (e.g., surface of hair fiber cross sections) is bombarded with a positively charged gallium ion beam. The positive and negative ion mass spectra of the sample were obtained by the time-of-flight method. See, e.g., Ruetsch, et al., J. Cosmet. Sci., 52, 169-184 (2001). The Gallium gun, which emits a pulsed primary ion beam (accelerating voltage of 25 kV), was used in the study.
The protocol was as follows. Dark brown European hair obtained from DeMeo Brothers, New York, N.Y. was bleached for 30 minutes with alkaline 6% hydrogen peroxide (adjusted to pH 10.2 with ammonium hydroxide). […]

Turning to `CCCCCCCCCCCCCCCC(=O)N[C@@H](CO)C(=O)OCCCCCCCCCCCCCC` [Palmitoyl Myristyl Serinate], the “penetration of hair conditioning agent into hair fiber cross section” value is listed as “not detected in the cross section of treated hair”.

For the origin of these results see US20050069517A1, “Hair conditioning compositions” (priority 2003, published 2005).
